Laboratory results from paper PMC5218480 (PLoS ONE, 2017).

Test system: MV-4-11 cells
Assay: Gene expression microarray analysis (Affymetrix PrimeView) and GSEA
Type: cell-based, human
Design: RFU PODN (11730768_x_at) / Fold change /veh PODN (11730768_x_at) / RFU LINC00158 (11744669_a_at) / Fold change /veh LINC00158 (11744669_a_at) / RFU DUSP10 (11751237_a_at) / Fold change /veh DUSP10 (11751237_a_at) / RFU ID3 (11757404_x_at) / Fold change /veh ID3 (11757404_x_at) / RFU PLEKHG5 (11737974_s_at) / Fold change /veh PLEKHG5 (11737974_s_at) / RFU LRRC4B (11730491_at) / Fold change /veh LRRC4B (11730491_at) / RFU GIMAP4 (11747438_a_at) / Fold change /veh GIMAP4 (11747438_a_at) / RFU KRT8 (11758183_x_at) / Fold change /veh KRT8 (11758183_x_at) / RFU CNN1 (11734310_a_at) / Fold change /veh CNN1 (11734310_a_at) / RFU VPS37D (11726825_at) / Fold change /veh VPS37D (11726825_at) / RFU C10orf10 (11716522_x_at) / Fold change /veh C10orf10 (11716522_x_at) / RFU KIR2DL2 /// KIR2DL4 /// KIR2DL5A /// KIR2DL5B /// KIR2DS1 /// KIR2DS2 /// KIR2DS3 /// KIR2DS4 /// KIR3DL3 /// KIR3DL3 /// KIR3DS1 (11738374_at) / Fold change /veh KIR2DL2 /// KIR2DL4 /// KIR2DL5A /// KIR2DL5B /// KIR2DS1 /// KIR2DS2 /// KIR2DS3 /// KIR2DS4 /// KIR3DL3 /// KIR3DL3 /// KIR3DS1 (11738374_at) / RFU C1QL1 (11718748_at) / Fold change /veh C1QL1 (11718748_at) / RFU TMPRSS4 (11747572_a_at) / Fold change /veh TMPRSS4 (11747572_a_at) / RFU HAMP (11756126_x_at) / Fold change /veh HAMP (11756126_x_at) / RFU RNFT2 (11725882_a_at) / Fold change /veh RNFT2 (11725882_a_at) / RFU NR4A2 (11747474_a_at) / Fold change /veh NR4A2 (11747474_a_at) / RFU ABCC12 (11746883_a_at) / Fold change /veh ABCC12 (11746883_a_at) / RFU TMEM136 (11760407_x_at) / Fold change /veh TMEM136 (11760407_x_at) / RFU CLDN22 /// WWC2 (11732394_at) / Fold change /veh CLDN22 /// WWC2 (11732394_at) / RFU HLA-DPB1 (11760878_x_at) / Fold change /veh HLA-DPB1 (11760878_x_at) / RFU SPINT1 (11716480_a_at) / Fold change /veh SPINT1 (11716480_a_at) / RFU GAP43 (11754022_s_at) / Fold change /veh GAP43 (11754022_s_at) / RFU A4GNT (11735810_at) / Fold change /veh A4GNT (11735810_at) / RFU PRB3 (11715151_x_at) / Fold change /veh PRB3 (11715151_x_at) / RFU TUBB4B (11761932_at) / Fold change /veh TUBB4B (11761932_at) / RFU CAPN14 (11732068_a_at) / Fold change /veh CAPN14 (11732068_a_at) / RFU TMCC2 (11721928_a_at) / Fold change /veh TMCC2 (11721928_a_at) / RFU IRGQ (11745062_a_at) / Fold change /veh IRGQ (11745062_a_at) / RFU FAM174B (11720279_a_at) / Fold change /veh FAM174B (11720279_a_at) / RFU TMPRSS4 (11748680_a_at) / Fold change /veh TMPRSS4 (11748680_a_at) / RFU FAM212B (11763350_a_at) / Fold change /veh FAM212B (11763350_a_at) / RFU PLEKHG5 (11743358_a_at) / Fold change /veh PLEKHG5 (11743358_a_at) / RFU ZSCAN30 (11745921_a_at) / Fold change /veh ZSCAN30 (11745921_a_at) / RFU CMKLR1 (11741424_a_at) / Fold change /veh CMKLR1 (11741424_a_at) / RFU LOC101060620 /// MAPK8IP1 (11723275_at) / Fold change /veh LOC101060620 /// MAPK8IP1 (11723275_at) / RFU SPTSSB (11747773_x_at) / Fold change /veh SPTSSB (11747773_x_at) / RFU PRSS12 (11739890_at) / Fold change /veh PRSS12 (11739890_at) / RFU BIN1 (11741810_x_at) / Fold change /veh BIN1 (11741810_x_at) / RFU WNT11 (11732464_a_at) / Fold change /veh WNT11 (11732464_a_at) / RFU C10orf10 (11716521_a_at) / Fold change /veh C10orf10 (11716521_a_at) / RFU C5orf56 (11738089_at) / Fold change /veh C5orf56 (11738089_at) / RFU CYB561 (11721691_x_at) / Fold change /veh CYB561 (11721691_x_at) / RFU ANKRD19P (11752326_a_at) / Fold change /veh ANKRD19P (11752326_a_at) / RFU OR2T12 /// OR2T33 /// OR2T8 (11738714_s_at) / Fold change /veh OR2T12 /// OR2T33 /// OR2T8 (11738714_s_at) / RFU VCAN (11748164_a_at) / Fold change /veh VCAN (11748164_a_at) / RFU JSRP1 (11732532_at) / Fold change /veh JSRP1 (11732532_at) / RFU KRTAP10-11 (11738290_x_at) / Fold change /veh KRTAP10-11 (11738290_x_at) / RFU MYO3A (11730013_a_at) / Fold change /veh MYO3A (11730013_a_at) / RFU EBF3 (11725865_a_at) / Fold change /veh EBF3 (11725865_a_at) / RFU CAMK2N1 (11719241_x_at) / Fold change /veh CAMK2N1 (11719241_x_at) / RFU C5orf56 (11738088_a_at) / Fold change /veh C5orf56 (11738088_a_at) / RFU OLFML3 (11715873_a_at) / Fold change /veh OLFML3 (11715873_a_at) / RFU LOC100653217 /// NTM (11731650_a_at) / Fold change /veh LOC100653217 /// NTM (11731650_a_at) / RFU MAPK11 (11762145_a_at) / Fold change /veh MAPK11 (11762145_a_at) / RFU FIZ1 (11724087_x_at) / Fold change /veh FIZ1 (11724087_x_at) / RFU OASL (11726364_x_at) / Fold change /veh OASL (11726364_x_at) / RFU SOX15 (11748057_x_at) / Fold change /veh SOX15 (11748057_x_at) / RFU CD79A (11719716_a_at) / Fold change /veh CD79A (11719716_a_at) / RFU HIST1H1D (11736915_at) / Fold change /veh HIST1H1D (11736915_at) / RFU CASKIN2 (11723855_a_at) / Fold change /veh CASKIN2 (11723855_a_at) / RFU LOC730098 (11760151_x_at) / Fold change /veh LOC730098 (11760151_x_at) / RFU OR4N2 (11742367_at) / Fold change /veh OR4N2 (11742367_at) / RFU PRRT2 (11749266_a_at) / Fold change /veh PRRT2 (11749266_a_at) / RFU SNX32 (11753110_a_at) / Fold change /veh SNX32 (11753110_a_at) / RFU CDHR5 (11726645_a_at) / Fold change /veh CDHR5 (11726645_a_at) / RFU RCAN1 (11760418_a_at) / Fold change /veh RCAN1 (11760418_a_at) / RFU FAM167A (11723789_a_at) / Fold change /veh FAM167A (11723789_a_at) / RFU FAM26E (11764081_at) / Fold change /veh FAM26E (11764081_at) / RFU ISYNA1 (11749810_s_at) / Fold change /veh ISYNA1 (11749810_s_at) / RFU ACY1 (11761880_at) / Fold change /veh ACY1 (11761880_at) / RFU 11764098_at / Fold change /veh 11764098_at / RFU SAMD14 (11745864_x_at) / Fold change /veh SAMD14 (11745864_x_at) / RFU NPB (11741838_a_at) / Fold change /veh NPB (11741838_a_at) / RFU TMPRSS6 (11731388_a_at) / Fold change /veh TMPRSS6 (11731388_a_at) / RFU KRTAP10-2 (11738614_at) / Fold change /veh KRTAP10-2 (11738614_at) / RFU ARHGAP8 /// PRR5-ARHGAP8 (11727945_x_at) / Fold change /veh ARHGAP8 /// PRR5-ARHGAP8 (11727945_x_at) / RFU KRTAP5-7 /// NADSYN1 (11734609_at) / Fold change /veh KRTAP5-7 /// NADSYN1 (11734609_at) / RFU RASL12 (11751679_a_at) / Fold change /veh RASL12 (11751679_a_at) / RFU CDKN2B (11736163_a_at) / Fold change /veh CDKN2B (11736163_a_at) / RFU PRF1 (11729649_at) / Fold change /veh PRF1 (11729649_at) / RFU, ZNF638 /// ZNF638-IT1 / Fold change vs veh, ZNF638 /// ZNF638-IT1 / RFU, PANK3 / Fold change vs veh, PANK3 / RFU, SH3YL1 / Fold change vs veh, SH3YL1 / RFU, ZEB2 / Fold change vs veh, ZEB2 / RFU, NRIP1 / Fold change vs veh, NRIP1 / RFU, PTTG1IP / Fold change vs veh, PTTG1IP / RFU, CAPN2 / Fold change vs veh, CAPN2 / RFU, MED14 / Fold change vs veh, MED14 / RFU, SNORA58 / Fold change vs veh, SNORA58 / RFU, C1orf63 / Fold change vs veh, C1orf63 / RFU, LRRFIP1 / Fold change vs veh, LRRFIP1 / RFU, NDUFAF7 / Fold change vs veh, NDUFAF7 / RFU, SLC12A2 / Fold change vs veh, SLC12A2 / RFU, IBTK / Fold change vs veh, IBTK / RFU, ESF1 / Fold change vs veh, ESF1 / Fold change vs veh, TMEM50B / RFU, TAOK1 / Fold change vs veh, TAOK1 / RFU, ACBD3 / Fold change vs veh, ACBD3 / RFU, TMA16 / Fold change vs veh, TMA16 / RFU, RWDD3 / Fold change vs veh, RWDD3 / RFU, BCAT1 / Fold change vs veh, BCAT1 / RFU, EDEM3 / Fold change vs veh, EDEM3 / RFU, TMEM33 / Fold change vs veh, TMEM33 / RFU, WDR75 / Fold change vs veh, WDR75 / RFU, AHCTF1 / Fold change vs veh, AHCTF1 / RFU, TFRC / Fold change vs veh, TFRC / RFU, ZDHHC17 / Fold change vs veh, ZDHHC17 / RFU, NOM1 / Fold change vs veh, NOM1 / RFU, ARL8B / Fold change vs veh, ARL8B / RFU, ZBTB11 / Fold change vs veh, ZBTB11 / RFU, TAMM41 / Fold change vs veh, TAMM41 / RFU, KIAA1704 /// LOC100996395 / Fold change vs veh, KIAA1704 /// LOC100996395 / RFU, ING1 / Fold change vs veh, ING1 / RFU, TRMT61B / Fold change vs veh, TRMT61B / RFU, FUBP3 / Fold change vs veh, FUBP3 / RFU, TP53 / Fold change vs veh, TP53 / RFU, TNKS2 / Fold change vs veh, TNKS2 / RFU, ZFP14 / Fold change vs veh, ZFP14 / RFU, ACTR2 / Fold change vs veh, ACTR2 / RFU, PPP3R1 / Fold change vs veh, PPP3R1 / RFU, PIK3R1 / Fold change vs veh, PIK3R1 / RFU, HNRNPA1 / Fold change vs veh, HNRNPA1 / RFU, RNF170 / Fold change vs veh, RNF170 / RFU, ZNF28 / Fold change vs veh, ZNF28 / RFU, RNGTT / Fold change vs veh, RNGTT / RFU, OGT / Fold change vs veh, OGT / RFU, BRD1 / Fold change vs veh, BRD1 / RFU, MARS / Fold change vs veh, MARS / RFU, ZNF655 / Fold change vs veh, ZNF655 / RFU, FAHD1 / Fold change vs veh, FAHD1 / RFU, BDP1 / Fold change vs veh, BDP1 / RFU, LRRCC1 / Fold change vs veh, LRRCC1 / RFU, ARID1A / Fold change vs veh, ARID1A / RFU, ZNF146 / Fold change vs veh, ZNF146 / RFU, ZNF330 / Fold change vs veh, ZNF330 / RFU, GPN3 / Fold change vs veh, GPN3 / RFU, C9orf123 / Fold change vs veh, C9orf123 / RFU, N4BP2L2 / Fold change vs veh, N4BP2L2 / RFU, ARFIP1 / Fold change vs veh, ARFIP1 / RFU, FAM179B / Fold change vs veh, FAM179B / RFU, BCL10 / Fold change vs veh, BCL10 / RFU, UHRF1BP1L / Fold change vs veh, UHRF1BP1L / RFU, BET1 / Fold change vs veh, BET1 / RFU, CNOT2 / Fold change vs veh, CNOT2 / RFU, ZNF268 / Fold change vs veh, ZNF268 / Fold change vs veh, ZNF507 / RFU, DGCR2 / Fold change vs veh, DGCR2 / RFU, WDSUB1 / Fold change vs veh, WDSUB1 / Fold change vs veh, HSP90B1 /// MIR3652 / RFU, ADSS / Fold change vs veh, ADSS / RFU, GK / Fold change vs veh, GK / RFU, ZNF148 / Fold change vs veh, ZNF148 / RFU, TAF9 / Fold change vs veh, TAF9 / RFU, SLC1A5 / Fold change vs veh, SLC1A5 / RFU, SLMO2 / Fold change vs veh, SLMO2 / RFU, ABCC4 / Fold change vs veh, ABCC4 / RFU, LOC101060439 /// RAP1B / Fold change vs veh, LOC101060439 /// RAP1B / RFU, RFX7 / Fold change vs veh, RFX7 / RFU, GTPBP10 / Fold change vs veh, GTPBP10 / RFU, CNEP1R1 / Fold change vs veh, CNEP1R1 / RFU, BIVM-ERCC5 /// ERCC5 / Fold change vs veh, BIVM-ERCC5 /// ERCC5 / RFU, ILF3 / Fold change vs veh, ILF3 / RFU 11762660_at / Fold change /veh 11762660_at / RFU VCAN (11757783_s_at) / Fold change /veh VCAN (11757783_s_at) / RFU DDX43 (11728927_at) / Fold change /veh DDX43 (11728927_at) / RFU KRT8 (11758188_x_at) / Fold change /veh KRT8 (11758188_x_at) / RFU NKD1 (11759106_at) / Fold change /veh NKD1 (11759106_at) / RFU SRD5A1 (11742802_a_at) / Fold change /veh SRD5A1 (11742802_a_at) / RFU TPSAB1 /// TPSB2 (11721975_s_at) / Fold change /veh TPSAB1 /// TPSB2 (11721975_s_at) / RFU GSTM3 (11746129_a_at) / Fold change /veh GSTM3 (11746129_a_at) / RFU IL23R (11737362_x_at) / Fold change /veh IL23R (11737362_x_at) / RFU TMEM51 (11727254_a_at) / Fold change /veh TMEM51 (11727254_a_at) / RFU PIWIL2 (11732686_x_at) / Fold change /veh PIWIL2 (11732686_x_at) / RFU ORM1 (11744905_x_at) / Fold change /veh ORM1 (11744905_x_at) / RFU CCDC152 (11743942_at) / Fold change /veh CCDC152 (11743942_at) / RFU ECM1 (11717891_a_at) / Fold change /veh ECM1 (11717891_a_at) / RFU IL23R (11748794_a_at) / Fold change /veh IL23R (11748794_a_at) / RFU TNFAIP8L3 (11732012_x_at) / Fold change /veh TNFAIP8L3 (11732012_x_at) / RFU MBOAT4 (11741988_at) / Fold change /veh MBOAT4 (11741988_at) / RFU 11764193_at / Fold change /veh 11764193_at / RFU TMEM53 (11763286_at) / Fold change /veh TMEM53 (11763286_at) / RFU MAGEB2 (11727129_at) / Fold change /veh MAGEB2 (11727129_at) / RFU TMEM200A (11744735_a_at) / Fold change /veh TMEM200A (11744735_a_at) / RFU CCDC152 (11751479_a_at) / Fold change /veh CCDC152 (11751479_a_at) / RFU FAM211A (11726209_a_at) / Fold change /veh FAM211A (11726209_a_at) / RFU RGS16 (11746705_a_at) / Fold change /veh RGS16 (11746705_a_at) / RFU VCAN (11755009_s_at) / Fold change /veh VCAN (11755009_s_at) / RFU RHOB (11743442_s_at) / Fold change /veh RHOB (11743442_s_at) / RFU RGS16 (11720943_a_at) / Fold change /veh RGS16 (11720943_a_at) / RFU RGS16 (11720944_at) / Fold change /veh RGS16 (11720944_at) / RFU, VPS4B / Fold change vs veh, VPS4B / RFU, CREB1 / Fold change vs veh, CREB1 / RFU, DNAJC13 / Fold change vs veh, DNAJC13 / RFU, GNAQ / Fold change vs veh, GNAQ / RFU, CDK5R1 / Fold change vs veh, CDK5R1 / RFU, ZRANB3 / Fold change vs veh, ZRANB3 / RFU, CUL4A / Fold change vs veh, CUL4A / RFU, CCNY / Fold change vs veh, CCNY / RFU, UFL1 / Fold change vs veh, UFL1 / RFU, COG3 / Fold change vs veh, COG3 / RFU, DIAPH2 / Fold change vs veh, DIAPH2 / RFU, SKA2 / Fold change vs veh, SKA2 / RFU, AFF3 / Fold change vs veh, AFF3 / RFU, LMF1 / Fold change vs veh, LMF1 / RFU, IPO11 / Fold change vs veh, IPO11 / RFU, DFFB / Fold change vs veh, DFFB / RFU, FOXP1 / Fold change vs veh, FOXP1 / RFU, CARD8 / Fold change vs veh, CARD8 / RFU, STRN3 / Fold change vs veh, STRN3 / RFU, ADK / Fold change vs veh, ADK / RFU, RASSF2 / Fold change vs veh, RASSF2 / RFU, WIPF1 / Fold change vs veh, WIPF1 / RFU, LARP1B / Fold change vs veh, LARP1B / RFU, RASA1 / Fold change vs veh, RASA1 / RFU, RB1 / Fold change vs veh, RB1 / RFU, PPFIA1 / Fold change vs veh, PPFIA1 / RFU, MAT2A / Fold change vs veh, MAT2A / RFU, CCT5 / Fold change vs veh, CCT5 / RFU, WDR92 / Fold change vs veh, WDR92 / RFU, CUX1 / Fold change vs veh, CUX1 / RFU, TTC7A / Fold change vs veh, TTC7A / RFU, TMEM135 / Fold change vs veh, TMEM135 / RFU, DEPTOR / Fold change vs veh, DEPTOR / RFU, CPM / Fold change vs veh, CPM / RFU, DNAJB6 / Fold change vs veh, DNAJB6 / RFU, CACNA2D3 / Fold change vs veh, CACNA2D3 / RFU, DTX4 / Fold change vs veh, DTX4 / RFU, TFCP2 / Fold change vs veh, TFCP2 / RFU, GMCL1 /// GMCL1P1 / Fold change vs veh, GMCL1 /// GMCL1P1 / RFU, AEBP2 / Fold change vs veh, AEBP2 / RFU, SNHG1 /// SNORD22 /// SNORD25 /// SNORD26 /// SNORD27 /// SNORD28 /// SNORD29 /// SNORD31 / Fold change vs veh, SNHG1 /// SNORD22 /// SNORD25 /// SNORD26 /// SNORD27 /// SNORD28 /// SNORD29 /// SNORD31 / Fold change (Aza/veh), C12orf56 (ProbeSet 11735607_a_at) / Fold change (ACY-1035/veh), C12orf56 (ProbeSet 11735607_a_at) / Fold change (Aza/veh), FGFR1OP (ProbeSet 11751329_s_at) / Fold change (ACY-1035/veh), FGFR1OP (ProbeSet 11751329_s_at) / Fold change (Aza/veh), VPS36 (ProbeSet 11739960_a_at) / Fold change (ACY-1035/veh), VPS36 (ProbeSet 11739960_a_at) / RFU SYPL1 (11715823_x_at) / Fold change /veh SYPL1 (11715823_x_at) / RFU IGFBP7 (11715501_s_at) / Fold change /veh IGFBP7 (11715501_s_at) / RFU REEP3 (11722064_at) / Fold change /veh REEP3 (11722064_at) / RFU IGLL1 (11728026_x_at) / Fold change /veh IGLL1 (11728026_x_at): dose or concentration left out as unconfirmed
Details: ProbeSet 11716844_s_at; LIST D

Nc1ncn([C@@H]2O[C@H](CO)[C@@H](O)[C@H]2O)c(=O)n1 [azacitidine]
Fold change vs veh, DNAJC13: 0.78
